Experimental data: patent publication US20220110985A1, “NUTRITIONAL COMPOSITION COMPRISING 2'FUCOSYLLACTOSE AND 3'GALACTOSYLLACTOSE” (N.V. Nutricia, priority 2019, published 2022)

Legend:
Klebsiella pneumonia K2 = assay: Fecal slurry fermentation spiked with pathogens: Klebsiella; type: cell-based; details: inoculum of baby 2, spiked
Description: (§1) Anaerobic fermentation of fecal slurry samples was tested in a BioLector Pro microfluidics mini multifermentor. Faecal slurry samples were collected from breast fed infants and from formula fed infants. These faecal slurry samples were processed by adding 0.6 grams feces in 40 ml Baby Reichardt V.6 medium+mucus+Ammonium sulfate+lactate and acetate. The resulting solutions were inserted to the BioLector Pro microfluidics mini multifermentor. The test legs were supplemented with 3-GL, 2′-FL, 3′-GL+2′-FL, and GOS/FOS. The control leg was supplemented with sterile water.
(§2) In addition the test legs were supplemented with Clostridium difficile C153 (difficile agar), Salmonella enteriditis S29 (XLD agar), Cronobacter sakasakii E71 (chromogenic agar) or Klebsiella pneumonia K2 (Simons citrate inositol agar). For every NDO and for the control also a pathogen free culture was prepared.
(§3) A 32 well plate that can handle low pH was used. The wells of this plate were filled with fecal solution. 2.5% (w/v) of the different sterile carbohydrate solutions (3′-GL, 2′-FL, 2′-FL/3′-GL (2.0+0.5%). and Glucose were added to the fecal slurry according to a template. […]

[1] = tested on: Salmonella enteriditis S29; assay: Fecal slurry fermentation spiked with pathogens: Salmonella; type: cell-based
Description: as §1, §2, §3

[2] = tested on: infant intestinal microbiota; assay: quad-SHIME infant intestinal microbiota model (SCFA, glycoprofile); type: cell-based, human infant faecal inoculum; set-up: Butyrate (Mean ± SD) / Iso-Butyrate (Mean ± SD) / Acetate (Mean ± SD): unit not given here; details: distal colon
Description: A faecal sample from a healthy infant born via C-section, exclusively breastfed with no history of antibiotic usage, was used as inoculum to simulate the infant intestinal microbiota in the colon compartments of a quad-SHIME®—a dynamic model of the human gastrointestinal tract comprises 4 SHIME® units running in parallel and each SHIME® unit is composed of 3 reactors simulating the stomach and small intestine, proximal and distal colons.

| Molecule | Klebsiella growth (Klebsiella pneumonia K2) | Salmonella growth ([1]; inoculum of baby 1, spiked) | Salmonella growth ([1]; inoculum of baby 2, spiked) | Acetate (Mean ± SD) ([2]; D1-D3) | Butyrate (Mean ± SD) ([2]; D1-D3) | Iso-Butyrate (Mean ± SD) ([2]; D1-D3) | Propionate (Mean ± SD) ([2]; D1-D3) | Acetate (Mean ± SD) ([2]; D4-D11) | Butyrate (Mean ± SD) ([2]; D4-D11) | Iso-Butyrate (Mean ± SD) ([2]; D4-D11) | Propionate (Mean ± SD) ([2]; D4-D11) | Acetate (Mean ± SD) ([2]; D12-D15) | Butyrate (Mean ± SD) ([2]; D12-D15) | Iso-Butyrate (Mean ± SD) ([2]; D12-D15) | Propionate (Mean ± SD) ([2]; D12-D15) | butyrate generation, in words ([2]; relative to control and scGOS/lcFOS groups) |
| --- | --- | --- | --- | --- | --- | --- | --- | --- | --- | --- | --- | --- | --- | --- | --- | --- |
| Gal (beta 1-3)-Gal (beta 1-4)-Glc [3′-GL] | most inhibited | – | – | – | – | – | – | – | – | – | – | – | – | – | – | – |
| C[C@@H]1O[C@@H](O[C@H]2[C@H](O[C@H]3[C@H](O)[C@@H](O)C(O)O[C@@H]3CO)O[C@H](CO)[C@H](O)[C@@H]2O)[C@@H](O)[C@H](O)[C@@H]1O (stereo partly drawn) [2′-FL, α-L-Fuc-(1→2)-β-D-Gal-(1→4)-D-Glc] | – | most restricted | most restricted | 38.67 ± 10.25 | 0 ± 0 | 0 ± 0 | 10.17 ± 3.01 | 26.22 ± 0.97 | 0.74 ± 0.49 | 0.68 ± 0.75 | 6.58 ± 0.49 | 22.96 ± 1.04 | 0.99 ± 0.09 | 0.93 ± 0.21 | 6.13 ± 0.63 | generated earlier in the distal colon and at a higher concentration |
